Tests used:
[1] = biological target: T1, human recombinant 15-PGDH (Homo sapiens, UniProt P15428); assay: Recombinant 15-PGDH enzymatic inhibition assay (PGDH-Lumi, NADH signal); format: biochemical; conditions: recombinant 15-PGDH; 15 min pre-incubation, 60 min reaction with PGE2 and NAD+, NADH signal
T1 sequence (P15428 1-266): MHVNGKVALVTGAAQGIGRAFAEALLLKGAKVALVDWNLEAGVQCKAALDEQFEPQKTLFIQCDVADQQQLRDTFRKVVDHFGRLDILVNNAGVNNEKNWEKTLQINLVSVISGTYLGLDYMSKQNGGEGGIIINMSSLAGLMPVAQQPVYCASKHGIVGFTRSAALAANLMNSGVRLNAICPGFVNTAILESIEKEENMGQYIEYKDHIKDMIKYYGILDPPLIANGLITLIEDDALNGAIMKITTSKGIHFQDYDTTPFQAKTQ
Summary of the method: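 Buffer 50 mM Tris pH 7.5 with 0.01% Tween-20 and […]; compound, 22 two-fold dilutions, pre-incubated with enzyme 15 min before substrate.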

[2] = biological target: T2, 15-PGDH in A549 cells (Homo sapiens, UniProt P15428); assay: A549 cellular 15-PGDH assay (PGE2 accumulation, HTRF); format: cell-based; conditions: interleukin-stimulated, inhibitor 24 hrs, PGE2 by competitive HTRF, read-out: A549 Cell Assay IC50
T2 construct: endogenous in cells; host or cells: A549
T2 sequence (P15428 1-266): T1 sequence (P15428 1-266)
Summary of the method: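 Supernatant PGE2 was quantified by competitive HTRF, in which sample PGE2 blocks FRET between a europium cryptate-labelled antibody and labelled PGE2. It came from A549 epithelial cells induced with IL-13. IC50s were calculated from the inversely proportional signal.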

Row | IC50 [1] | IC50 [2] | Structure (SMILES)
1 | 1.17 nM | 0.656 nM | Cn1cc2cc(-c3ccc4ccc([C@@H](O)C5CC(F)(F)C5)cc4n3)cnc2n1 (single isomer, unassigned) [Compound D1S]
2 | 0.538 nM | 0.171 nM | Cn1cc2cc(-c3ccc4cc(C(O)C5CCOC5)sc4n3)cnc2n1 (stereo not shown) [Compound B19]
3 | 0.278 nM | 0.137 nM | Cn1cc2cc(-c3ccc4cc([C@]5(O)C[C@@H](C(F)F)C5)sc4n3)cnc2n1 [Compound C30C, cis-3-(difluoromethyl)-1-(6-(2-methyl-2H-pyrazolo[3,4-b]pyridin-5-yl)thieno[2,3-b]pyridin-2-yl)cyclobutanol]
4 | 0.325 nM | 0.657 nM | Cn1cc2cc(-c3ccc4cc([C@H](O)[C@@H]5CCC5(F)F)sc4n3)cnc2n1 (single isomer, unassigned) [Compound B94RS]
5 | 24.7 nM | 61.8 nM | Cn1cc2cc(-c3ccc4cc([C@H](O)C5CC(F)(F)C5)ccc4n3)cnc2n1 (single isomer, unassigned) [Compound D7R]
6 | 1.76 nM | 18.9 nM | Cn1cc2cc(-c3ccc4cc(C5(O)CCC5)sc4n3)cnc2n1 [Compound C21, 1-(6-(2-methyl-2H-pyrazolo[3,4-b]pyridin-5-yl)thieno[2,3-b]pyridin-2-yl)cyclobutanol]
7 | 0.944 nM | 0.437 nM | CC(C)n1ncc2cc(-c3ccc4cc(C(O)C5CC(F)(F)C5)sc4n3)cnc21 (stereo not shown) [Compound B65, (3,3-difluorocyclobutyl)(6-(1-(2-propanyl)-1H-pyrazolo[3,4-b]pyridin-5-yl)thieno[2,3-b]pyridin-2-yl)methanol]
8 | 28.8 nM | 0.572 nM | Cn1cc2cc(-c3ccc4cc([C@@H](O)C56CC(C5)C6)sc4n3)cnc2n1 (single isomer, unassigned) [Compound B87S]
9 | 0.889 nM | 0.519 nM | COC[C@H]1C[C@](O)(c2cc3ccc(-c4cnc5nn(C)cc5c4)nc3s2)C1 (single isomer, unassigned) [Compound C58C, cis-3-(methoxymethyl)-1-(6-(2-methyl-2H-pyrazolo[3,4-b]pyridin-5-yl)thieno[2,3-b]pyridin-2-yl)cyclobutanol]
10 | 0.203 nM | 0.53 nM | Cn1cc2cc(-c3ccc4cc([C@H](O)C5CCC(F)(F)CC5)sc4n3)cnc2n1 (single isomer, unassigned) [Compound B31R]
11 | 7.79 nM | 13.2 nM | Cn1cc2cc(-c3ccc4sc([C@]5(O)C[C@@H](C(F)F)C5)cc4n3)cnc2n1 [Compound C84C, cis-3-(difluoromethyl)-1-(5-(2-methyl-2H-pyrazolo[3,4-b]pyridin-5-y1)thieno[3,2-b]pyridin-2-yl)cyclobutanol]

Further lines, the molecule ahead of its results:

Row | Structure (SMILES) | IC50 [1] | IC50 [2]
12 | Cn1cc2cc(-c3ccc4cc(C5(O)CC6(COC6)C5)sc4n3)cnc2n1 [Compound C28] | 0.472 nM | 0.452 nM
13 | Cn1cc2cc(-c3ncc4cc(C5(O)CC(C)(C)C5)sc4n3)cnc2n1 [Compound C57, 3,3-dimethyl-1-(2-(2-methyl-2H-pyrazolo[3,4-b]pyridin-5-yl)thieno[2,3-d]pyrimidin-6-yl)cyclobutanol] | 0.62 nM | 0.143 nM
14 | Cn1cc2cc(-c3ncc4cc([C@]5(O)C[C@@]6(CC6(F)F)C5)sc4n3)cnc2n1 (single isomer, unassigned) [Compound C114T, trans-1,1-difluoro-5-(2-(2-methyl-2H-pyrazolo[3,4-b]pyridin-5-yl)thieno[2,3-d]pyrimidin-6-yl)spiro[2.3]hexan-5-ol] | 0.488 nM | 0.669 nM
15 | Cn1nnc2cc(-c3ccc4nc([C@]5(O)C[C@@H](C(F)F)C5)sc4n3)cnc21 [Compound C82C, cis-3-(difluoromethyl)-1-(5-(3-methyl-3H-[1,2,3]triazolo[4,5-b]pyridin-6-yl)[1,3]thiazolo[5,4-b]pyridin-2-yl)cyclobutanol] | 9.49 nM | 34.2 nM
16 | O[C@]1(c2cc3cnc(-c4cnc5nccn5c4)nc3s2)C[C@H](C(F)(F)F)C1 [Compound C124C, cis-1-(2-(imidazo[1,2-a]pyrimidin-6-yl)thieno[2,3-d]pyrimidin-6-yl)-3-(trifluoromethyl)cyclobutanol] | 2.01 nM | 15.9 nM
17 | OC1(c2cc3ccc(-c4cncnc4)nc3s2)CC(F)(F)C1 [Compound C46, 3,3-difluoro-1-(6-(5-pyrimidinyl)thieno[2,3-b]pyridin-2-yl)cyclobutanol] | 26.1 nM | 12.3 nM
18 | O[C@]1(c2cc3cnc(-c4cccnc4)nc3s2)C[C@H](C(F)(F)F)C1 [Compound C122C, cis-1-(2-(3-pyridinyl)thieno[2,3-d]pyrimidin-6-yl)-3-(trifluoromethyl)cyclobutanol] | 6.83 nM | 18.3 nM
19 | CO[C@]1(C(F)(F)F)C[C@@](O)(c2cc3ccc(-c4cnc5nn(C)cc5c4)nc3s2)C1 (single isomer, unassigned) [Compound C66C, cis-3-methoxy-1-(6-(2-methyl-2H-pyrazolo[3,4-b]pyridin-5-yl)thieno[2,3-b]pyridin-2-yl)-3-(trifluoromethyl)cyclobutanol] | 0.852 nM | 0.206 nM
20 | Cn1cc2cc(-c3ccc4nc(C5(O)CC6(CC6)C5)sc4n3)cnc2n1 [Compound C108, 5-(5-(2-methyl-2H-pyrazolo[3,4-b]pyridin-5-yl)[1,3]thiazolo[5,4-b]pyridin-2-yl)spiro [2.3]hexan-5-ol] | 0.671 nM | 1.25 nM
21 | Cn1cc2cc(-c3ncc4cc([C@]5(O)C[C@](C)(C#N)C5)sc4n3)cnc2n1 (single isomer, unassigned) [Compound C96T, trans-3-hydroxy-1-methyl-3-(2-(2-methyl-2H-pyrazolo[3,4-b]pyridin-5-yl)thieno[2,3-d]pyrimidin-6-yl)cyclobutanecarbonitrile] | 0.445 nM | 1.39 nM
22 | Cn1cc2cc(-c3ccc4cc([C@]5(O)C[C@@](C)(C#N)C5)sc4n3)cnc2n1 [Compound C63C, cis-3-hydroxy-1-methyl-3-(6-(2-methyl-2H-pyrazolo[3,4-b]pyridin-5-yl)thieno[2,3-b]pyridin-2-yl)cyclobutanecarbonitrile] | 0.429 nM | 0.115 nM
23 | CO[C@]1(C)C[C@@](O)(c2cc3cnc(-c4cnc5nn(C)cc5c4)nc3s2)C1 (single isomer, unassigned) [Compound C118C, cis-3-methoxy-3-methyl-1-(2-(2-methyl-2H-pyrazolo[3,4-b]pyridin-5-yl)thieno[2,3-d]pyrimidin-6-yl)cyclobutanol] | 0.557 nM | 2.21 nM
24 | Cn1cc2cc(-c3ccc4nc([C@]5(O)C[C@@H](C(F)(F)F)C5)sc4n3)cnc2n1 [Compound C74C, cis-1-(5-(2-methyl-2H-pyrazolo[3,4-b]pyridin-5-yl)[1,3]thiazolo[5,4-b]pyridin-2-yl)-3-(trifluoromethyl)cyclobutanol] | 0.458 nM | 0.192 nM
25 | Cn1cc2cc(-c3ncc4cc(C5(O)CC6(CC(F)(F)C6)C5)sc4n3)cnc2n1 [Compound C116, 6,6-difluoro-2-(2-(2-methyl-2H-pyrazolo[3,4-b]pyridin-5-yl)thieno[2,3-d]pyrimidin-6-yl)spiro[3.3]heptan-2-ol] | 0.43 nM | 1.95 nM
26 | Cn1cc2cc(-c3ccc4ccc([C@H](O)C5CCOCC5)cc4n3)cnc2n1 (single isomer, unassigned) [Compound D4R] | 243 nM | 187 nM
